Results: patent publication US12358949B2, “Defensin fragments for use in therapy or prophylaxis” (priority 2019, dated 2025)
Entries after “also recorded” stand apart in the source; their conditions may differ. Like-named read-outs stand apart in the source and are kept apart here. Where a SMILES comes first, the peptide text is derived from it. Bridges are numbered along the chain shown (N, C = ends).

Experiments:
Format in all cases: cell-based
[1] = tested on: E. coli MC1000; assay: Transmission electron microscopy of peptide treated bacteria; settings: 200 μg/ml, 2 hours
Description: Transmission electron microcscopy experiments were performed as previously described^11. 6×10^8 cfu E. coli MC1000 was incubated with 200 μg/ml of each peptide for 2 hours. Bacteria were fixed in Karnovsky's fixative, embedded in agarose, coagulated, cut in small blocks and fixed again in Karnovsky's solution. After post-fixation and embedding in glycid ether blocks were cut using an ultra-microtome. Sections (30 nm) were mounted on copper grids and analyzed using a Zeiss LIBRA 120 transmissions electron microscope.

[2] = tested on: commensal bacteria; assay: Radial diffusion assay, HD-5 fragments; settings: 4 μg fragment, 2 μg full-length peptide; commensal bacteria (FIG. 3)
Description: In the RDA 2 μg of the full length and 4 μg of each fragment were used. An inhibition zone greater than 5 mm was determined as high activity, between 2.5 and 5 mm as low activity and 2.5 mm were the diameter of the punched well and therefore no activity.
(§1) Antimicrobial activity of all peptides was tested with a modified radial diffusion assay from Lehrer et al^12 Shortly described, log-phase bacteria grew (anaerobic bacteria with AnaeroGen, Oxoid in anaerobic jars) in liquid tryptic soy broth (TSB) (Becton Dickinson). After several wash steps in 10 mM sodium phosphate buffer pH 7.4, 4×10^6 cfu/ml was used per assay. To measure the antibacterial effect of the identified peptide fragments, the bacteria were incubated in 10 mM sodium phosphate (pH 7.4) containing 0.3 mg/ml TSB powder and 1% (w/v) low EEO-agarose (Applichem). Peptide fragments were then pipetted into punched wells and allowed to diffuse for 3 hours at 37° C. After that a nutrient rich gel with 6% TSB (w/v) and 1% agarose in 10 mM sodium phosphate buffer was poured on top of the first gel. After 24 hours the inhibition zones were measured. […] All experiments were carried out at least three times.

[3] = tested on: E. faecium 475747
Description: (§2) The tested bacteria were incubated overnight in 1×TSB broth, centrifuged and washed with 10 mM sodium phosphate buffer containing 1% (w/v) TSB broth. 5×10^5 cfu/ml bacteria were mixed with different peptide concentrations in 10 mM sodium phosphate buffer with 1% (w/v) TSB (final volume 100 μl) and incubated for 2 hours at 37° C. Afterwards we added 100 μl 2×TSB broth and we measured the optical density at 600 nm (Spark 10M, Tecan, Austria). Bacterial growth was monitored for 12 hours, growing at 37° C. with shaking during the measurements each 30 minutes, except for Akkermansia muciniphila which were incubated at 37° C. in an anaerobic jar and growth was measured after 72 hours.

[4] = tested on: A. baumannii 4-MRGN
Description: as §2

[5] = tested on: P. aeruginosa ATCC 27853
Description: as §2

[6] = tested on: pathogenic bacteria; assay: Radial diffusion assay, HD-5 fragments; settings: pathogenic Gram-positive and Gram-negative bacteria (FIG. 4)
Description: A heat map system with high activity (inhibition zone in the RDA>5 mm), low activity (2.5 to 5 mm) and no activity (2.5 mm) was used.
as §1

[7] = tested on: C. albicans 529L
[8] = tested on: S. aureus USA300
Description: as §2

[9] = tested on: Y. enterocolitica
Description: as §2

[10] = tested on: P. aeruginosa XPAT2
Description: as §2

[11] = tested on: K. pneumoniae 3-MRGN; settings: K. pneumoniae 3-MRGN; after 12 hours
Description: as §2

[12] = tested on: P. aeruginosa XPAT1
Description: as §2

[13] = tested on: P. aeruginosa PAO1
Description: as §2

[14] = tested on: K. pneumoniae DSM 30104
Description: as §2

[15] = tested on: S. aureus ATCC 25923
Description: as §2

[16] = tested on: E. faecium DSM 20477
Description: as §2

[17] = tested on: E. coli JM83
Description: as §2

[18] = tested on: P. aeruginosa 4-MRGN
Description: as §2

[19] = tested on: A. baumannii DSM 30007
Description: as §2

C[C@H](N)C(=O)N[C@H](C(=O)N[C@@H](CS)C(=O)N[C@@H](Cc1ccc(O)cc1)C(=O)N[C@@H](CS)C(=O)N[C@@H](CCCNC(=N)N)C(=O)N[C@H](C(=O)NCC(=O)N[C@@H](CCCNC(=N)N)C(=O)N[C@@H](CS)C(=O)N[C@@H](C)C(=O)N[C@H](C(=O)N[C@@H](CCCNC(=N)N)C(=O)O)[C@@H](C)O)[C@@H](C)O)[C@@H](C)O [HD-51-13] (H-ATCYCRTGRCATR-OH; N-terminus and C-terminus assumed)
phenotype of peptide treated bacteria (TEM) [1]: bigger aggregation inside the bacteria | antimicrobial activity in radial diffusion assay [2]: exhibited antimicrobial properties, albeit to a lesser extent than HD-51-9

CC[C@H](C)[C@H](NC(=O)[C@H](CCC(=O)O)NC(=O)[C@H](CS)NC(=O)[C@@H](NC(=O)CNC(=O)[C@H](CO)NC(=O)[C@H](CC(C)C)NC(=O)[C@H](CO)NC(=O)[C@H](CCC(=O)O)NC(=O)[C@H](CCCNC(=N)N)NC(=O)[C@@H](NC(=O)[C@H](C)NC(=O)[C@H](CS)NC(=O)[C@H](CCCNC(=N)N)NC(=O)CNC(=O)[C@@H](N)[C@@H](C)O)[C@@H](C)O)C(C)C)C(=O)N[C@@H](CO)C(=O)NCC(=O)N[C@@H](CCCNC(=N)N)C(=O)N[C@@H](CC(C)C)C(=O)N[C@@H](Cc1ccc(O)cc1)C(=O)N[C@@H](CCCNC(=N)N)C(=O)N[C@@H](CC(C)C)C(=O)N[C@@H](CS)C(=O)N[C@@H](CS)C(=O)N[C@@H](CCCNC(=N)N)C(=O)O [HD-57-32] (H-TGRCATRESLSGVCEISGRLYRLCCR-OH; N-terminus and C-terminus assumed)
MIC ([3]; 475747, 12 h): 25 µM | MIC ([3]; E. faecium 475747, after 12 hours, listed as 7-32): 72.2 µg/mL | MIC ([4]; 4-MRGN, 12 h): 25 µM | MIC ([4]; A. baumannii 4-MRGN, after 12 hours, listed as 7-32): 72.25 µg/mL | MIC ([5]; ATCC 27853, 12 h): 50 µM | MIC ([5]; P. aeruginosa ATCC 27853, after 12 hours, listed as 7-32): 144.5 µg/mL | antimicrobial activity in radial diffusion assay [2]: exhibited antimicrobial properties, albeit to a lesser extent than HD-51-9 | antimicrobial activity in radial diffusion assay [6]: strong effect on the growth of every tested bacterium

CC[C@H](C)[C@H](NC(=O)[C@H](CCC(=O)O)NC(=O)[C@H](CS)NC(=O)[C@@H](NC(=O)CNC(=O)[C@H](CO)NC(=O)[C@H](CC(C)C)NC(=O)[C@H](CO)NC(=O)[C@H](CCC(=O)O)NC(=O)[C@H](CCCNC(=N)N)NC(=O)[C@@H](NC(=O)[C@H](C)NC(=O)[C@@H](N)CS)[C@@H](C)O)C(C)C)C(=O)N[C@@H](CO)C(=O)NCC(=O)N[C@@H](CCCNC(=N)N)C(=O)N[C@@H](CC(C)C)C(=O)N[C@@H](Cc1ccc(O)cc1)C(=O)N[C@@H](CCCNC(=N)N)C(=O)N[C@@H](CC(C)C)C(=O)N[C@@H](CS)C(=O)N[C@@H](CS)C(=O)N[C@@H](CCCNC(=N)N)C(=O)O [HD-510-32] (H-CATRESLSGVCEISGRLYRLCCR-OH; N-terminus and C-terminus assumed)
antimicrobial activity in radial diffusion assay [6]: only minimally active or more selective in terms of different strains; also recorded: limited to the two Gram-positive bacteria

CC[C@H](C)[C@H](NC(=O)[C@H](CCC(=O)O)NC(=O)[C@H](CS)NC(=O)[C@@H](NC(=O)CNC(=O)[C@H](CO)NC(=O)[C@H](CC(C)C)NC(=O)[C@H](CO)NC(=O)[C@@H](N)CCC(=O)O)C(C)C)C(=O)N[C@@H](CO)C(=O)NCC(=O)N[C@@H](CCCNC(=N)N)C(=O)N[C@@H](CC(C)C)C(=O)N[C@@H](Cc1ccc(O)cc1)C(=O)N[C@@H](CCCNC(=N)N)C(=O)N[C@@H](CC(C)C)C(=O)N[C@@H](CS)C(=O)N[C@@H](CS)C(=O)N[C@@H](CCCNC(=N)N)C(=O)O [HD-514-32] (H-ESLSGVCEISGRLYRLCCR-OH; N-terminus and C-terminus assumed)
antimicrobial activity in radial diffusion assay [6]: inactive

CC[C@H](C)[C@@H]1NC(=O)[C@H](CC(C)C)NC(=O)[C@@H]2CSSC[C@@H]3NC(=O)[C@H](CO)NC(=O)[C@@H](NC(=O)[C@@H](N)C(C)C)CSSC[C@@H](C(=O)N[C@H](C(=O)N[C@@H](CCCNC(=N)N)C(=O)N[C@H](C(=O)O)C(C)C)[C@@H](C)O)NC(=O)[C@H](CSSC[C@H](NC(=O)[C@H](Cc4ccccc4)NC(=O)[C@H](C(C)C)NC(=O)[C@H](CC(C)C)NC(=O)[C@H](CCCNC(=N)N)NC3=O)C(=O)N[C@@H](CCCNC(=N)N)C(=O)N[C@@H](CCCNC(=N)N)C(=O)N[C@@H]([C@@H](C)O)C(=O)N[C@@H](CCC(=O)O)C(=O)N[C@@H](CC(C)C)C(=O)N[C@@H](CCCNC(=N)N)C(=O)N[C@@H](C(C)C)C(=O)NCC(=O)N[C@@H](CC(N)=O)C(=O)N2)NC(=O)[C@H](Cc2ccc(O)cc2)NC(=O)[C@H]([C@@H](C)O)NC(=O)[C@H](Cc2ccccc2)NC(=O)[C@H](CO)NC(=O)[C@H](C(C)C)NC(=O)CNC(=O)CNC1=O [HNP-4fl, reference compound] (H-VCSCRLVFCRRTELRVGNCLIGGVSFTYCCTRV-OH; disulfide 2-30, 4-19, 9-29 (inferred); N-terminus and C-terminus assumed)
MIC ([7]; 529L, 24 h): 50 µM | MIC ([7]; C. albicans 529L, after 24 hours (Table 5)): 185.8 µg/mL | MIC ([8]; S. aureus USA300, after 12 hours): 23.2 µg/mL | MIC ([8]; USA300, 12 h): 6.25 µM | MIC ([9]; 12 h): 12.5 µM | MIC ([9]; Y. enterocolitica, after 12 hours): 46.4 µg/mL | MIC ([3]; 475747, 12 h): 3.125 µM | MIC ([3]; E. faecium 475747, after 12 hours): 11.6 µg/mL | MIC ([10]; P. aeruginosa XPAT2, after 12 hours): 46.4 µg/mL | MIC ([10]; XPAT2, 12 h): 12.5 µM | MIC [11]: >>> | MIC ([12]; P. aeruginosa XPAT1, after 12 hours): 46.4 µg/mL | MIC ([12]; XPAT1, 12 h): 12.5 µM | MIC ([13]; P. aeruginosa PAO1, after 12 hours): 46.4 µg/mL | MIC ([13]; PAO1, 12 h): 12.5 µM | MIC ([14]; DSM 30104, 12 h): 100 µM | MIC ([14]; K. pneumoniae DSM30104, after 12 hours): 371.5 µg/mL | MIC ([4]; 4-MRGN, 12 h): 12.5 µM | MIC ([4]; A. baumannii 4-MRGN, after 12 hours): 46.4 µg/mL | MIC ([5]; ATCC 27853, 12 h): 6.25 µM | MIC ([5]; P. aeruginosa ATCC 27853, after 12 hours): 23.2 µg/mL | MIC ([15]; ATCC 25923, 12 h): 6.25 µM | MIC ([15]; S. aureus ATCC25923, after 12 hours): 23.2 µg/mL | MIC ([16]; DSM 20477, 12 h): 6.25 µM | MIC ([16]; E. faecium DSM20477, after 12 hours): 23.2 µg/mL | MIC ([17]; E. coli JM83, after 12 hours): 46.4 µg/mL | MIC ([17]; JM83, 12 h): 12.5 µM | MIC ([18]; 4-MRGN, 12 h): 50 µM | MIC ([18]; P. aeruginosa 4-MRGN, after 12 hours): 185.8 µg/mL | MIC ([19]; A. baumannii DSM30007, after 12 hours): 11.6 µg/mL | MIC ([19]; DSM 30007, 12 h): 3.125 µM

CATRESLSGVCEISGRLY (listed as Homo sapiens) [HD-510-27, HD-5 fragment 10-27]
antimicrobial activity in radial diffusion assay [2]: did not exhibit measurable activity | antimicrobial activity in radial diffusion assay [6]: inactive

LYRLCCR (listed as Homo sapiens) [HD-526-32, HD-5 fragment 26-32]
antimicrobial activity in radial diffusion assay [2]: exhibited antimicrobial properties, albeit to a lesser extent than HD-51-9 | antimicrobial activity in radial diffusion assay [6]: only minimally active or more selective in terms of different strains
